Where a name gives a salt, the structure may show the parent alone.
Key:
PARP-1 enzyme = target: T1, PARP-1 enzyme (Homo sapiens, UniProt P09874); assay: Purified PARP-1 enzyme inhibition assay (Trevigen kit, 96 well ELISA plates); format: biochemical
T1 construct: purchased Trevigen, Gaithersburg, Md
Procedure: Effect of Tetracyclic 1H-indeno[1,2-b]pyridine-2(5H)-one analogs on PARP Activity in purified PARP-1 enzyme assay
The potency of inhibition on purified PARP-1 enzyme was subsequently determined for selected compounds, and the potency was compared with INO-1001. The assay was performed in 96 well ELISA plates according to instructions provided with a commercially available PARP-1 inhibition assay kit (Trevigen, Gaithersburg, Md.). Briefly, wells were coated with 1 mg/ml histone (50 μl/well) at 4° C. overnight. Plates were then washed four times with PBS and then blocked by adding 50 μl Strep-Diluent (supplied with the kit). After incubation (1 h, 25° C.), the plates were washed four times with PBS. Appropriate dilutions of compound was combined with 2×PARP cocktail (1.95 mM NAD^+, 50 μM biotinylated NAD^+ in 50 mM TRIS pH 8.0, 25 mM MgCl2) and high specific activity PARP enzyme (both were supplied with the kit) in a volume of 50 μl. The reaction was allowed to proceed for 30 min at room temperature. After 4 washes in PBS, incorporated biotin was detected by peroxidase-conjugated streptavidin (1:500 dilution) and TACS Sapphire substrate. EC50 and IC50 values were determined from a dose-response curve.

PARP = target: T2, PARP (Mus musculus, UniProt P11103); assay: PARP activity in cultured macrophages, whole-cell based assay (3H-NAD+ incorporation after hydrogen peroxide); conditions: murine RAW macrophages, 1 hour pretreatment, hydrogen peroxide 0.5 mM
T2 construct: PARP Activity in Cultured Macrophages, Using a Whole-Cell Based Assay; endogenous in cells; host or cells: murine RAW macrophages (ATCC)
Procedure: Effect of Tetracyclic 1H-indeno[1,2-b]pyridine-2(511)-one Analogs on PARP Activity in Cultured Macrophages, Using a Whole-Cell Based Assay
The murine RAW macrophages (ATCC, American Type Culture Collection, Manassas, Va.) were grown in […] (Invitrogen Life Technologies; Carlsbad, Calif.) medium supplemented with 10% heat-inactivated FBS, 2 mM L-glutamine, and 100 U/ml of penicillin and streptomycin. Cells, between passages 5 and 15, were seeded at a density of 250,000 cells/well in 12 well plates and allowed to grow 48 hours before use. Growth medium was changed on the day of use. Cells were treated with a tetracyclic 1H-indeno[1,2-b]pyridine-2(5H)-one analog diluted in a growth medium supplemented with 10% fetal bovine serum (FBS) for 1 hour prior to the addition of hydrogen peroxide (0.5 mM) for a further 25 minutes. For the measurement of PARP activity, media was removed and replaced with 0.5 ml of the assay buffer (56 mM HEPES-pH 7.5, 28 mM KCl, 28 mM NaCl, 2 mM MgCl2, 0.01% digitonin, and 0.5 μCi/ml of ^3H-NAD^+) for 20 minutes. After aspirating the assay buffer, cells were lysed and transferred to eppendorf tubes containing 250 μl of 50% ice-cold trichloroacetic acid (TCA), which were then placed at 4° C. for 4 hours. Samples were centrifuged at 10,000 g for 10 minutes and supernatant removed. The pellets were washed twice with 500 μl of ice-cold 5% w/v TCA. The pellets were then solubilized in 250 μl of NaOH (0.1 M) containing 2% SDS overnight at 37° C. and the PARP activity was then determined by measuring the radioactivity incorporated using a Wallac scintillation counter. The solubilized protein (250 μl) was mixed with 5 ml of scintillation fluid (ScintiSafe Plus, Fisher Scientific) before being counted for 3 minutes. EC50 values were determined from a dose-response curve.

T1 sequence (P09874 whole entry): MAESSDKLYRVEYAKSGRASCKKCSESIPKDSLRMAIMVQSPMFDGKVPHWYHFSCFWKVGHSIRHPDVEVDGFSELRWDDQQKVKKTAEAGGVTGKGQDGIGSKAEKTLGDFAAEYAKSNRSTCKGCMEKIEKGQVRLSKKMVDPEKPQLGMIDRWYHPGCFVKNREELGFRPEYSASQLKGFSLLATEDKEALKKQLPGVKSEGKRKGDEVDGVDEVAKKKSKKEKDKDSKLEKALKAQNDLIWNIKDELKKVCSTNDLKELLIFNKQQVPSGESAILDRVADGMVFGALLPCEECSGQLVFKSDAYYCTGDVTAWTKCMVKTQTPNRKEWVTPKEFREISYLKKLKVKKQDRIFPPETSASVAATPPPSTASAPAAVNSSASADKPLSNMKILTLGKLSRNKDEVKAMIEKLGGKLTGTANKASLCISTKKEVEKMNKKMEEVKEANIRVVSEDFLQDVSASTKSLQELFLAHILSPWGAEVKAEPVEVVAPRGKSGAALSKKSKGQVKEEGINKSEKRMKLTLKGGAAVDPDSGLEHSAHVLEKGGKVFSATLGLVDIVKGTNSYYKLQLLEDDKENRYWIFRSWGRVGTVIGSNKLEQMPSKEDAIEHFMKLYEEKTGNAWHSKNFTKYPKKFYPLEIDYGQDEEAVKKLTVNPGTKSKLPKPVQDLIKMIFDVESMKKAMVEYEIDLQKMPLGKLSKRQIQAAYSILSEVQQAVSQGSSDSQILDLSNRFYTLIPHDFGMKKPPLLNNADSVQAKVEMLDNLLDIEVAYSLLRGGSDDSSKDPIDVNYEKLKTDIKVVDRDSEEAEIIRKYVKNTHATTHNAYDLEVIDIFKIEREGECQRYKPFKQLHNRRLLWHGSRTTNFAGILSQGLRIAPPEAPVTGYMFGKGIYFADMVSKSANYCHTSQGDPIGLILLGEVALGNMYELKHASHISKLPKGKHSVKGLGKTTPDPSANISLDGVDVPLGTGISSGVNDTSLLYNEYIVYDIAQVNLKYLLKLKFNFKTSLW
T2 sequence (P11103 whole entry): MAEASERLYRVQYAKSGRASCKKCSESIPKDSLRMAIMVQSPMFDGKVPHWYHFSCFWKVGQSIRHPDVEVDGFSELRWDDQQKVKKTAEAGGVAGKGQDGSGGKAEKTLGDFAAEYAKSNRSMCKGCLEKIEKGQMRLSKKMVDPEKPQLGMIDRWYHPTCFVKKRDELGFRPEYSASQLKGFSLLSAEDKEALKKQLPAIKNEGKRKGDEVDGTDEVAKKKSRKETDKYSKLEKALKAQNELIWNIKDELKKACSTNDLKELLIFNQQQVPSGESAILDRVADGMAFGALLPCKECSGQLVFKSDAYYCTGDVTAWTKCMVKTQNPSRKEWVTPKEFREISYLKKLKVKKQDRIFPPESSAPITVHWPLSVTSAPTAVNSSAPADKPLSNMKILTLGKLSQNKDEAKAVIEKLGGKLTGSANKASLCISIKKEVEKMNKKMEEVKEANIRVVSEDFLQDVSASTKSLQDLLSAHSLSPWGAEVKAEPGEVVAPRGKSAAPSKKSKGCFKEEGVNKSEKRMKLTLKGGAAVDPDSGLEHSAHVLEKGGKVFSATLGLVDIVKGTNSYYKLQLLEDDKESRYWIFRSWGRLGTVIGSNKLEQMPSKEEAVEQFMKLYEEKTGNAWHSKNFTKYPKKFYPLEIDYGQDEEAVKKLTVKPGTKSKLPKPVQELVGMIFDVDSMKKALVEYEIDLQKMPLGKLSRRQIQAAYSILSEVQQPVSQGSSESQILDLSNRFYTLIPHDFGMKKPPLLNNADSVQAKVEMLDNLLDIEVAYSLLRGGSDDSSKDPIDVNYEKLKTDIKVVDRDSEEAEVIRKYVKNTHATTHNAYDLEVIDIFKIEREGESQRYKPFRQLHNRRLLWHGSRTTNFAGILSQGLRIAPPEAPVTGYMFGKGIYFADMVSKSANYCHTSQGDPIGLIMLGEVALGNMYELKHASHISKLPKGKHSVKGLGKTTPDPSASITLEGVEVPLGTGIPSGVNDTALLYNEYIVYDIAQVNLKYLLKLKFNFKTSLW

Row | IC50 (PARP-1 enzyme) [µM] | EC50 (PARP) [µM] | SMILES
1 | 0.00383 | 0.0113 | O=c1[nH]c2c(c3c1CCCC3)Cc1c(CN3CCC(O)CC3)cccc1-2 [Example 1, 10-((4-hydroxypiperidin-1-yl)methyl)-3,4,6,11-tetrahydro-1H-indeno[1,2-c]isoquinolin-5(2H)-one]
2 | 0.00515 | 0.00152 | O=c1[nH]c2c(c3c1CCCC3)Cc1c(CN3CCCCC3)cccc1-2 [Example 2, 10-(piperidin-1-ylmethyl)-3,4,6,11-tetrahydro-1H-indeno[1,2-c]isoquinolin-5(2H)-one]
3 | 0.0939 | 0.0127 | CCOC1CCN(Cc2cccc3c2Cc2c-3[nH]c(=O)c3c2CCCC3)CC1 [Example 9, 10-((4-ethoxypiperidin-1-yl)methyl)-3,4,6,11-tetrahydro-1H-indeno[1,2-c]isoquinolin-5(2H)-one]
4 | 0.0052 | 0.0041 | CC1CCN(Cc2cccc3c2Cc2c-3[nH]c(=O)c3c2CCCC3)CC1 [Example 20, 10-((4-methylpiperidin-1-yl)methyl)-3,4,6,11-tetrahydro-1H-indeno[1,2-c]isoquinolin-5(2H)-one mesylate]
5 | 0.0127 | 0.0209 | O=c1[nH]c2c(c3c1CCCC3)Cc1c(CN3CCC(N4CCCC4)CC3)cccc1-2 [Example 23, 10-((4-(pyrrolidin-1-yl)piperidin-1-yl)methyl)-3,4,6,11-tetrahydro-1H-indeno[1,2-c]isoquinolin-5(2H)-one]
6 | 0.0034 | 0.005 | O=c1[nH]c2c(c3c1CCCC3)Cc1c(CNC3CCCC3)cccc1-2 [Example 26, 10-((cyclopentylamino)methyl)-3,4,6,11-tetrahydro-1H-indeno[1,2-c]isoquinolin-5(2H)-one]
7 | 0.0231 | 0.1 | C[C@@H]1CN(c2cccc3c2Cc2c-3[nH]c(=O)c3c2CCCC3)C[C@H](C)O1 [Example 32, 10-(2,6-dimethylmorpholino)-3,4,6,11-tetrahydro-1H-indeno[1,2-c]isoquinolin-5(2H)-one]
8 | 0.0089 | 0.05 | COCCNCc1ccc2c(c1)Cc1c-2[nH]c(=O)c2c1CCCC2 [Example 36, 9-((2-methoxyethylamino)methyl)-3,4,6,11-tetrahydro-1H-indeno[1,2-c]isoquinolin-5(2H)-one]
9 | 0.0063 | 0.045 | CCCN1CCN(c2cccc3c2Cc2c-3[nH]c(=O)c3c2CCCC3)CC1 [Example 41, 10-(4-propylpiperazin-1-yl)-3,4,6,11-tetrahydro-1H-indeno[1,2-c]isoquinolin-5(2H)-one]
10 | 0.0081 | 0.009 | COCCN1CCN(c2cccc3c2Cc2c-3[nH]c(=O)c3c2CCCC3)CC1 [Example 43, 10-(4-(2-methoxyethyl)piperazin-1-yl)-3,4,6,11-tetrahydro-1H-indeno[1,2-c]isoquinolin-5(2H)-one]
11 | 0.0055 | 0.025 | O=c1[nH]c2c(c3c1CCCC3)Cc1cc(CNCCN3CCOCC3)ccc1-2 [Example 45, 9-((2-morpholinoethylamino)methyl)-3,4,6,11-tetrahydro-1H-indeno[1,2-c]isoquinolin-5(2H)-one]
12 | 0.027 | 0.01 | O=c1[nH]c2c(c3ccsc13)Cc1c(CNC3CCCC3)cccc1-2 [Example 48, 9-((cyclopentylamino)methyl)-5,10-dihydro-4H-indeno[1,2-b]thieno[3,2-d]pyridin-4-one]
13 | 0.0557 | 0.0227 | COCCN1CCN(c2cccc3c2Cc2c-3[nH]c(=O)c3cccnc23)CC1 [Example 49, 10-(4-(2-methoxyethyl)piperazin-1-yl)-6,11-dihydro-5H-indeno[1,2-h][1,6]naphthyridin-5-one]
14 | 0.0063 | 0.005 | O=c1[nH]c2c(c3c1CCCC3)Cc1c(CNC3(CO)CCCC3)cccc1-2 [Example 50, 10-((1-(hydroxymethyl)cyclopentylamino)methyl)-3,4,6,11-tetrahydro-1H-indeno[1,2-c]isoquinolin-5(2H)-one]
15 | > 0.25 | 0.059 | CC(C)(O)C(=O)Nc1cccc2c1Cc1c-2[nH]c(=O)c2c1CCCC2 [Example 51, 2-hydroxy-2-methyl-N-(5-oxo-2,3,4,5,6,11-hexahydro-1H-indeno[1,2-c]isoquinolin-10-yl)propanamide]
16 | 0.0736 | 0.055 | CSCCC(=O)Nc1cccc2c1Cc1c-2[nH]c(=O)c2c1CCCC2 [Example 52, 3-(methylthio)-N-(5-oxo-2,3,4,5,6,11-hexahydro-1H-indeno[1,2-c]isoquinolin-10-yl)propanamide]
17 | 0.0898 | 0.006 | C[S+]([O-])CCC(=O)Nc1cccc2c1Cc1c-2[nH]c(=O)c2c1CCCC2 (centres unmarked) [Example 53, 3-(methylsulfinyl)-N-(5-oxo-2,3,4,5,6,11-hexahydro-1H-indeno[1,2-c]isoquinolin-10-yl)propanamide]
18 | 0.0412 | 0.034 | O=c1[nH]c2c(c3sccc13)Cc1c(CNC3CCCC3)cccc1-2 [Example 55, 9-((cyclopentylamino)methyl)-5,10-dihydro-4H-indeno[1,2-b]thieno[2,3-d]pyridin-4-one]
19 | 0.0199 | 0.009 | CN1CCN(c2cccc3c2Cc2c-3[nH]c(=O)c3cccnc23)CC1 [Example 56, 10-(4-methylpiperazin-1-yl)-6,11-dihydro-5H-indeno[1,2-d][1,6]naphthyridin-5-one]
20 | 0.0255 | 0.0061 | CCCCN1CCN(c2cccc3c2Cc2c-3[nH]c(=O)c3cccnc23)CC1 [Example 58, 10-(4-butylpiperazin-1-yl)-6,11-dihydro-5H-indeno[1,2-h][1,6]naphthyridin-5-one]
21 | 0.0124 | 0.0024 | CCN1CCN(c2cccc3c2Cc2c-3[nH]c(=O)c3cccnc23)CC1 [Example 59, 10-(4-ethylpiperazin-1-yl)-6,11-dihydro-5H-indeno[1,2-h][1,6]naphthyridin-5-one]
22 | 0.0192 | 0.037 | CC(C)N1CCN(c2cccc3c2Cc2c-3[nH]c(=O)c3cccnc23)CC1 [Example 60, 10-(4-isopropylpiperazin-1-yl)-6,11-dihydro-5,1-indeno[1,2-h][1,6]naphthyridin-5-one]
23 | 0.0279 | 0.046 | O=c1[nH]c2c(c3ncccc13)Cc1c-2cccc1N1CCN(CC2CC2)CC1 [Example 61, 10-(4-(cyclopropylmethyl)piperazin-1-yl)-6,11-dihydro-5H-indeno[1,2-h][1,6]naphthyridin-5-one]
24 | 0.0281 | 0.013 | O=c1[nH]c2c(c3ncccc13)Cc1c(CNC3CCCC3)cccc1-2 [Example 62, 10-((cyclopentylamino)methyl)-6,11-dihydro-5H-indeno[1,2-h][1,6]naphthyridin-5-one]
25 | 0.0547 | 0.0184 | O=c1[nH]c2c(c3c1CCCC3)Cc1c(CN3CC=CCC3)cccc1-2 [Example 69, 10-((5,6-dihydropyridin-1(2H)-yl)methyl)-3,4,6,11-tetrahydro-1H-indeno[1,2-c]isoquinolin-5(2H)-one]
